In BindingDB's records for doi:10.3109/14756360902797328 (Rheinische Friedrich-Wilhelms-Universitat Bonn, 2009):
pKi: −log10 of the molar value.

Tests used:
Assay in all cases: Inhibition Assay
Papain = molecular target: T1, Papain (Carica papaya, UniProt P00784); conditions: pH 6.5; 25 °C
T1 sequence (P00784 whole entry): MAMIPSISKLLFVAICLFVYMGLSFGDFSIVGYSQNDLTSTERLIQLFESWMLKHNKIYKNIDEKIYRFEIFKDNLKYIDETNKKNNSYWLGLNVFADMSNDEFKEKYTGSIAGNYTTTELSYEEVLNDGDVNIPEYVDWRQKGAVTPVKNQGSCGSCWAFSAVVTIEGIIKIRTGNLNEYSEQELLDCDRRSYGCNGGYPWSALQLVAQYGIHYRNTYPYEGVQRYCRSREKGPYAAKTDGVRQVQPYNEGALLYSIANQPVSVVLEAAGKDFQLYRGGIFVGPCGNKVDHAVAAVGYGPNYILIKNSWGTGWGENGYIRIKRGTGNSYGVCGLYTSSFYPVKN
Procedure: Papain enzyme activities were determined by spectrophotometric detection of the product p-nitroaniline at 25 C in a a multicell holder (parallel measurements for each single inhibitor determination) at a wavelength of 405 nm.

Cathepsin K = molecular target: T2, Cathepsin K (Homo sapiens, UniProt P43235); conditions: pH 5; 37 °C
T2 sequence (P43235 whole entry): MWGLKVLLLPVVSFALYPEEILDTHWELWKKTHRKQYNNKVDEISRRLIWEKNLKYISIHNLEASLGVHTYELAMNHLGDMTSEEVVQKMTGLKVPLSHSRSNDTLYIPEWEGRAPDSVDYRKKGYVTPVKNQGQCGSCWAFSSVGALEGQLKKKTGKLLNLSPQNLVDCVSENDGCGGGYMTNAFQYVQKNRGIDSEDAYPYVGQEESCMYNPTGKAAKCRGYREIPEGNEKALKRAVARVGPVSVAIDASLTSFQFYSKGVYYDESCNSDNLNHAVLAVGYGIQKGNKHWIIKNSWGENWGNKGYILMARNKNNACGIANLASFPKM
Procedure: (§1) Cathepsin enzyme activities were calculated from kinetic measurements performed by fluorimetric detection of the product 7-amino-4-methylcoumarin at 37 C in a stirred cuvette. The wavelengths for excitation and emission were 360nm and 440nm.

Cathepsin S = Cathepsin S (Homo sapiens, UniProt P25774); conditions: pH 6.5; 37 °C
Chain of Cathepsin S (P25774 whole entry): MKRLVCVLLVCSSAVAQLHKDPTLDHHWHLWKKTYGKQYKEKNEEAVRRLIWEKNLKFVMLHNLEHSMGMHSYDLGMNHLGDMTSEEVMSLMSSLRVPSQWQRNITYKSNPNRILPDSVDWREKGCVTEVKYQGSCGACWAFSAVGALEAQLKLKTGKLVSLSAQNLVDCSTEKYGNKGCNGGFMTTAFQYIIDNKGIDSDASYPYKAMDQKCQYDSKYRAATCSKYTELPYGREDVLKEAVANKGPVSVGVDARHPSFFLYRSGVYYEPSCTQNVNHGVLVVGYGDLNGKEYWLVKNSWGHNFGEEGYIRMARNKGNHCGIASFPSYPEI
Procedure: as §1

Procathepsin L = Procathepsin L (Bos taurus, UniProt P25975); conditions: pH 6; 37 °C
Chain of Procathepsin L (P25975 whole entry): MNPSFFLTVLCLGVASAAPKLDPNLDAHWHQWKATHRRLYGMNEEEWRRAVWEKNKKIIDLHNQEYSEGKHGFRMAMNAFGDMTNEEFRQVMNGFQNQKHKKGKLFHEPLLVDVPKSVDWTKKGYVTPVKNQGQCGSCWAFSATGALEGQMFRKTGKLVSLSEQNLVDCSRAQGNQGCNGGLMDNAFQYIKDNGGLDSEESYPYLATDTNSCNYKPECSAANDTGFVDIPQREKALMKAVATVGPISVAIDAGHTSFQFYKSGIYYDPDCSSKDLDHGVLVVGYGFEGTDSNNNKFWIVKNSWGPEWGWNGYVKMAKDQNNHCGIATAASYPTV
Procedure: as §1

Structure (SMILES) | pKi (Papain) | pKi (Cathepsin K) | pKi (Cathepsin S) | pKi (Procathepsin L)
CC(C)(C)OC(=O)N[C@@H](Cc1ccccc1)C(=O)N[C@H](C#N)CC#N [Dipeptide nitrile, 10] | 5.96 | 5.20 | 6.08 | 6.05
CSCCC(C#N)NC(=O)[C@H](Cc1ccccc1)NC(=O)OC(C)(C)C (stereo partly specified) [Dipeptide nitrile, 7] | 6.60 | 5.44 | 6.19 | 6.57
C[S+](C)CCC(C#N)NC(=O)[C@H](Cc1ccccc1)NC(=O)OC(C)(C)C (stereo partly specified) [Dipeptide nitrile, 8] | – | 5.42 | 6.14 | 6.28
